Drawing on PubChem BioAssay AID1626 (SRMLSC, 2009), this text covers IC50, IC90 and CC50 for 64 compounds.

The test system of this test is M. tuberculosis H37Rv growth inhibition. The experiment in a line: M. tuberculosis H37Rv growth inhibitors, H37Rv strain (AID 1626). The settings on record: for IC90: measured here: IC90 against H37Rv; for CC50: measured here: Vero cell cytotoxicity.

SMILES strings stand for the structures.

In general, IC50 refers to the concentration at which inhibition is half-maximal. What is called IC90 is the concentration at which the effect reaches the 90% level. With `O=c1[nH][nH]cc1C=Nc1ccc(Oc2ccccc2)cc1`, the IC50 is 15.4 µM and the IC90 was more than 100 µM.

As usually defined, the CC50 is the concentration at which the toxic effect on the cells reaches its halfway point. Turning to `O=C(Nc1ccc(C(F)(F)F)cc1)N1CCN(c2ccnc3cc(Cl)ccc23)CC1`, the IC50 was 8.62 µM, the IC90 was 15.4 µM and the CC50 amounted to 8.22 µM.

For `Cc1cc(NC(=O)CSc2nnc(-c3ccccc3)o2)no1`, the IC50 is 5.7 µM, the IC90 amounted to 10.1 µM and the CC50 was more than 40 µM.

With `COC(=O)c1c(C)oc2ccc(OC(=O)c3cccs3)cc12`, the IC50 was 1.1 µM and the IC90 was found to be 17.8 µM.

With `O=c1oc2ccccc2nc1/C=C(O)/C=C\c1ccccc1`, the IC50 is 4.33 µM and the IC90 was 13.1 µM.

Take `CCCCNC(=O)c1cc2n(n1)C(C(F)(F)F)CC(c1ccccc1)N2` (stereo unspecified): the IC50 was 0.363 µM and the IC90 was found to be 4.14 µM.

On to `Cc1cc(N)c2cc(NC(=O)/C=C/c3ccccc3Cl)ccc2n1`, for which the IC50 was 1.68 µM, the IC90 turned out to be 2.84 µM and the CC50 stood at 1.76 µM.

With `O=C(NC(=O)c1ccc(C(F)(F)F)cc1)Nc1ccc(-c2cnco2)cc1`, the IC50 is 49.6 µM, the concentration for an effect of 90% (IC90) is more than 100 µM and the CC50 is more than 40 µM.

`CCCCCn1c(N2CCC(Cc3ccccc3)CC2)nc2c1c(=O)[nH]c(=O)n2C`: the IC50 is 11.8 µM, the IC90 worked out at 13.4 µM and the CC50 amounted to 24.1 µM.

In the case of `CC(NC(=O)c1ccc(Br)cc1)c1ccc2c(c1)CCCC2` (stereo unspecified), the IC50 was 15.4 µM and the IC90 is more than 100 µM.

`O=Cc1ccc2oc3nc4n(c(=O)c3c(=O)c2c1)CCCS4`: the IC50 is 0.441 µM and the IC90 was 1.24 µM.

In the case of `O=C(CCSc1ccccc1)Nc1nnc(-c2ccccc2)o1`, the IC90 is more than 100 µM.

Take `O=C1C=C(Nc2ccccc2)c2ccccc2C1=O`: the IC50 was 12.3 µM, the IC90 came out at 21.2 µM and the CC50 amounted to 13.7 µM.

Turning to `CCOC(=O)c1cc(-c2csc(COc3ccccc3Cl)n2)on1`, the concentration for half-maximal inhibition (IC50) was less than 0.195 µM and the IC90 was determined as 3.52 µM.

Take `CCCCOC(=O)c1ccc(NC(=O)C(=O)NCCN(CC)CC)cc1`: the IC50 was 35.7 µM and the IC90 is more than 100 µM.

For the compound `O=c1c([N+](=O)[O-])cc(C(F)(F)F)cn1Cc1cccc(Cl)c1`, the IC50 is 8.56 µM and the IC90 stood at 22.2 µM.

As to `Cc1cc(C)n2c(SCc3ccc(Br)cc3)nnc2n1`, the CC50 is more than 40 µM.

In the case of `Cc1csc(NC(=O)CSc2ccc(-c3ccccn3)nn2)n1`, the IC50 is 5.48 µM, the IC90 came out at 6.15 µM and the CC50 was more than 40 µM.

For `CC(=O)CC(=O)Nc1ccc2ccccc2c1`, the IC50 is 13.6 µM and the IC90 is more than 100 µM.

For the compound `O=C(/C=C/c1ccc(Cl)c([N+](=O)[O-])c1)c1cccnc1`, the IC50 was 1.18 µM, the IC90 amounted to 2.47 µM and the half-maximal cytotoxic concentration (CC50) amounted to 38.8 µM.

With `CCCNC1=C(N(C(C)=O)c2cccc(F)c2)C(=O)c2ccccc2C1=O`, the half-inhibitory concentration (IC50) is 2.75 µM, the IC90 was 4.13 µM and the CC50 is 29.9 µM.

Regarding `O=C(NC1CCCCC1)C(c1ccc2ncccc2c1)N(Cc1ccc2c(c1)OCO2)C(=O)c1ccc2c(c1)OCCO2` (stereo unspecified), the IC50 was 12.7 µM, the IC90 was more than 100 µM and the CC50 was more than 40 µM.

For `O=C(c1ccc([N+](=O)[O-])s1)N1CCN(c2cccc(Cl)c2)CC1`, the IC50 was 9.2 µM, the IC90 stood at 12.8 µM and the 50% cytotoxic concentration (CC50) was found to be 31.6 µM.

`COC(=O)c1cc(NC(=O)N2c3ccccc3Sc3ccccc32)cc(C(=O)OC)c1` showed a CC50 of more than 40 µM.

For the compound `Cc1occc1-c1nnc(SCC(=O)NCCc2ccccc2)o1`, the IC50 was 15 µM and the IC90 was more than 100 µM.

For `O=C(C1CCN(c2nnc(-n3cccc3)s2)CC1)N1CCN(c2cccc(C(F)(F)F)c2)CC1`, the IC50 is 0.258 µM, the IC90 came to 1.05 µM and the CC50 is more than 40 µM.

As for `CC(C)[C@H](NC(=O)c1ccccc1Cl)C(=O)Nc1nc(-c2ccccn2)cs1`, the IC50 is 7.72 µM, the IC90 was more than 100 µM and the cytotoxic concentration (CC50) was found to be 9.39 µM.

With `CCCCn1c(=O)c(C(=O)Nc2cnccn2)c(O)c2ccccc21`, the IC50 is 5.79 µM, the IC90 was found to be 6.45 µM and the CC50 turned out to be 18.2 µM.

Regarding `O=C(CCl)N(c1ccccc1)c1c[nH]c2ccccc12`, the IC50 is 3.84 µM, the IC90 was found to be 8.14 µM and the cytotoxic concentration (CC50) amounted to 0.995 µM.

Regarding `CCCCCCOC(=O)c1ccc(NC(=O)c2cc(OC)c(OC)c(OC)c2Br)cc1`, the IC50 was 5.27 µM, the IC90 is 8.11 µM and the CC50 is more than 40 µM.

Turning to `Cc1nc2ccccn2c1C(=O)NCc1ccc2c(c1)OCO2`, the IC50 is 1.62 µM and the IC90 is 7.83 µM.

On to `Cc1ccc(C(C(=O)Nc2ccc3c(c2)OCO3)N(C)C(=O)/C=C\c2ccc3c(c2)OCO3)cc1` (stereo unspecified), for which the IC50 was 45.5 µM and the IC90 was more than 100 µM.

Turning to `CCC(=O)OCCNc1cc(Sc2nccn2C)c2nonc2c1[N+](=O)[O-]`, the IC50 was 20.2 µM, the IC90 was 27.4 µM and the CC50 was 18.3 µM.

With `Cc1ccc2c(Cl)cc(Cl)c(OCC(=O)NC(C)(C)C)c2n1`, the IC50 was 11.6 µM, the IC90 was more than 100 µM and the 50% cytotoxic concentration (CC50) is more than 40 µM.

For the compound `O=C(NCCCn1ccnc1)c1nn2c(C(F)(F)F)cc(-c3ccc(Br)cc3)nc2c1Cl`, the IC50 was 6.53 µM, the IC90 is 9.35 µM and the CC50 is more than 40 µM.

With `COc1cccc(CNc2ccccc2O)c1OCc1ccccc1F`, the IC90 is more than 100 µM and the CC50 was more than 40 µM.

Take `O=C(Nc1ccc(OC(F)(F)F)cc1)N1CCN(c2ccnc3cc(Cl)ccc23)CC1`: the IC50 was 3.08 µM, the IC90 was 3.51 µM and the CC50 is 8.59 µM.

Consider `CN(C)c1ccc(N=Nc2nc3ccccc3n2C)cc1`, for which the IC50 was 0.939 µM, the IC90 is 2.73 µM and the CC50 was more than 40 µM.

As for `COc1ccc(C[C@H]2CN3C(=NC[C@@H]3Cc3ccccc3)N2CCNC(=O)CCC2CCCCC2)cc1`, the IC50 is 9.05 µM, the IC90 amounted to 11.6 µM and the CC50 came to 17.7 µM.

As for `CCOC(=O)c1ccc(NC(=O)CCC2COc3ccccc3O2)cc1` (stereo unspecified), the IC50 is 3.3 µM and the IC90 was more than 100 µM.

As to `CCCCCc1cc(=O)oc2c(C(CCN(CC)CC)c3ccc(N(C)C)cc3)c(OC)cc(OC)c12` (stereo unspecified), the IC50 is 4.06 µM, the IC90 is 5.28 µM and the CC50 was 14.9 µM.

Consider `Cc1c(Cc2ccccc2)c(NCCCO)n2c(nc3ccccc32)c1C#N`, for which the IC50 is 2.9 µM and the IC90 is 3.35 µM.

`CCCCn1c(O)c(C(C)=Nc2ccc(OCC)cc2)c(=O)[nH]c1=O`: the IC50 is 5.45 µM, the IC90 is more than 100 µM and the CC50 was more than 40 µM.

As to `COc1cc(/C=C/c2ccc3c([N+](=O)[O-])cccc3n2)ccc1OCC(=O)O`, the IC50 was 2.72 µM and the IC90 worked out at 6.3 µM.

Take `c1ccc(-c2nc(NCC3CCCO3)c3ccccc3n2)nc1` (stereo unspecified): the IC50 is 3.11 µM, the IC90 stood at 3.21 µM and the CC50 was more than 40 µM.

Regarding `O=C(Nc1ccc2oc(-c3cccnc3)nc2c1)c1ccc([N+](=O)[O-])o1`, the IC50 is less than 0.195 µM, the IC90 is more than 100 µM and the CC50 came out at 1.32 µM.

In the case of `O=C(CSc1nccc(=O)[nH]1)Nc1ccc(Br)c(Cl)c1`, the IC50 was 40.6 µM and the IC90 is more than 100 µM.

`CC1CCN(c2nc(/C=C/c3ccccc3)nc3ccccc23)CC1`: the IC50 is 10.1 µM, the IC90 came out at 12.8 µM and the CC50 was more than 40 µM.

With `CCOc1ccc2c3c(c(=O)oc2c1OCC)CCCC3`, the IC50 was 7.11 µM and the IC90 was 12.8 µM.

With `Cc1ccc2nc(Cl)c(CNCc3ccccc3)cc2c1`, the IC50 was 5.64 µM and the IC90 was determined as 14.1 µM.

As for `O=C(CC(Nc1ccc(F)cc1)C(=O)OCC(=O)c1cccs1)c1ccccc1` (stereo unspecified), the IC50 was 67.1 µM and the IC90 was more than 100 µM.

`O=C1c2ccccc2C(=O)N1CCCCN(C(=O)c1cc([N+](=O)[O-])cc([N+](=O)[O-])c1)c1ccc(Cl)cc1`: the IC50 is 1.23 µM and the IC90 was 1.65 µM.

Turning to `O=[N+]([O-])c1ccc(Sc2nnnn2-c2ccccc2)nc1`, the IC50 is 8.34 µM, the IC90 worked out at 12.6 µM and the half-maximal cytotoxic concentration (CC50) is 8.99 µM.

Consider `FC(F)(F)c1ccc(N2CCOCC2)c(Nc2nc3ccccc3n3cnnc23)c1`, for which the IC50 was 8.57 µM, the concentration for an effect of 90% (IC90) was 18.3 µM and the half-maximal cytotoxic concentration (CC50) amounted to 24.5 µM.

`COc1ccc(CCNC(=O)c2ccc(CN3CCC(Cc4ccccc4)CC3)cc2)cc1`: the 90% effect concentration (IC90) is more than 100 µM and the CC50 was more than 40 µM.

On to `CCCCOc1ccc(NC(=O)c2cnc(C)cn2)cc1`, for which the half-maximal inhibitory concentration (IC50) is 22.1 µM, the IC90 is more than 100 µM and the cytotoxic concentration (CC50) is more than 40 µM.

As for `O=[N+]([O-])c1cc(-c2n[nH]c(-c3ccccc3)n2)cc([N+](=O)[O-])c1`, the IC50 is 28.4 µM, the IC90 is more than 100 µM and the CC50 was more than 40 µM.

Turning to `Cn1c(O)c(C(=Nc2ccccc2)SCc2ccc(Cl)cc2)c(=O)n(C)c1=O`, the IC50 is 5.61 µM, the IC90 stood at 6.41 µM and the CC50 amounted to 21.2 µM.

As to `CC1(C)OC(=O)C(=Cc2ccc[nH]2)C(=O)O1`, the IC50 is less than 0.195 µM and the IC90 is more than 100 µM.

For `Cc1cccc(/C=c2\s/c(=C\C(=O)C(C)(C)C)[nH]c2=O)c1`, the IC50 is 0.465 µM, the IC90 came out at 11.6 µM and the cytotoxic concentration (CC50) turned out to be 29 µM.

The compound `O=C(CCc1nc(-c2cccs2)no1)Nc1cnc2ccccc2c1` gave an IC90 of more than 100 µM.

`CC(=O)Nc1ccc(NC(=O)c2ccc(C3SCC(=O)N3CCc3ccccc3)cc2)cc1` (stereo unspecified) registered an IC90 of more than 100 µM.

Take `Cc1ccc(C)c(-c2csc(NC(=O)c3cnccn3)n2)c1`: the IC50 is 2.6 µM, the IC90 is more than 100 µM and the CC50 was more than 40 µM.

`COc1ccccc1N1CCN(c2ncc(C(=O)N3CCN(c4cccc(Cl)c4)CC3)c3ccccc23)CC1` gave a CC50 of more than 40 µM.
